System: gliadin-sensitive BALB/c mice
Test: Gliadin-sensitive BALB/c mice, 4-week oral gliadin challenge
Type: in vivo, mouse
Method: In the first model, BALB/c mice are fed for at least three generations with a gluten-free diet, followed by a 4-week gliadin challenge, as described (Papista, C., et al. 2012). Ten week-old BALB/c mice were orally challenged for 4 weeks with gliadin or vehicle in the presence or absence of 2 mM VX-770 administered intraperitoneally 15 min prior to gliadin challenge (n=10 per treatment group). […] Moreover, VX-770 opposed the ability of gliadin to increase TG2 protein levels (FIG. 9c) and ERK 1/2 phosphorylation (FIG. 9d).
BALB/c mice (background BALB/cAnNCrl) were purchased from Charles River (Varese, Italy). Three generation gluten-free diet (Mucedola srl, Milan), male and female, were challenged with gliadin for 4 weeks. To assess the effects of VX-770 into a controlled environment, mice were challenged via gavage for 4 weeks with i) vehicle alone or ii) gliadin (SigmaAldich, G3375) (5 mg/daily for one week and then 5 mg/daily thrice a week for 3 weeks)(Moon, S. H., et al. 2016) in the presence or absence of intraperitoneal VX770 (0.075 mg/mice in 100 μl DMSO, 2 mM, SelleckchemS1144) or genistein (25 mg\kg in 100μ1 DMSO, SigmaAldrich), administered 15 minutes prior gliadin challenge (n=10 mice per group of treatment).
At the end of the last daily treatment, mice were anesthetized with Avertine (tribromoethanol, 250 mg/kg, Sigma Aldrich, T48402) and then killed; the intestines were collected for CFTR function analysis or stored for all described techniques.
Chambers for mounting either transwell cell cultures or mouse tissue biopsies were obtained from Physiologic Instruments (model P2300, San Diego, Calif., USA). Chamber solution was buffered by bubbling with identical Ringer solution on both sides and were maintained at 37° C., vigorously stirred, and gassed with 95% O2/[…]. Cells or tissues were short circuited using Ag/AgCl agar electrodes. A basolateral-to-apical chloride gradient was established by replacing NaCl with Na-gluconate in the apical (luminal) compartment to create a driving force for CFTR-dependent Cl secretion. To measure stimulated Isc, the changed sodium gluconate solution was supplied with 100 μM amiloride. Agonists (forskolin) were added to the bathing solutions as indicated (for a minimum 5 min of observation under each condition) to activate CFTR channels present at the apical surface of the epithelium (either cell surface or lumen side of the tissue) and CFTRInh-172 (10 μM) was added to the mucosal bathing solution to block CFTR-dependent Isc. Shortcircuit current (expressed as Isc (μA/cm2)) and resistance were acquired or calculated using the VCC600 transepithelial clamp from Physiologic Instruments and the Acquire & Analyze 2.3 software for data acquisition (Physiologic Instruments), as previously described Tosco A, et al. 2016; Romani, L. et al. 2017).
The whole lysate or membrane fraction proteins of cell lines and mice intestine homogenates were obtained from treated and untreated cells or mice as described. The equal amount of protein were resolved by SDS-PAGE gel and blotted with antibodies against: SQSTM1, (Sigma Aldrich, 108k4767) 1:1000, PPARγ (Santa Cruz Biotechnology, sc7273) 1:500, BECN1 (Abcam, ab58878) 1:1000, CFTR clone M3A7 (Abcam, ab4067) 1:500, phospho-ERK1/2 (php42/44, Cell Signaling Technology, #91101) 1:1000, UVRAG (Santa Cruz Biotechnology sc8215) 1:1000, NHERF-1 (BD, 611161) 1:1000, EZRIN (BD, 610603) 1:1000, hVps34 (SigmaV9764) 1:300, biotin (Abcam, ab1227) 1:2000, PKAr2a (BD, 610625) 1:500, Ubiquitin (Cell Signaling clone P4D1, #3936) 1:1000, CHIP (Calbiochem PC711) 1:500, Caspase-1 p10 (M-20) (Santa Cruz Biotechnology, sc-514) 1:200, NLRP3 (Abcam, ab4207), 1:500, IDO1 (monoclonal; cv152) 1:1000^[80], used as primary antibodies. Normalization was performed by probing the membrane with anti-β-actin (Cell Signaling, #4970) 1:1000, anti-Gapdh (Sigma-Aldrich, G8795) 1:1000 and anti-flottilin (Abcam ab15148) 1:1000 antibodies. […]

[1] = BALB/c mice small intestine homogenates

CC(C)(C)c1cc(C(C)(C)C)c(NC(=O)c2c[nH]c3ccccc3c2=O)cc1O [VX-770, N-(2,4-di-tert-butyl-5-hydroxyphenyl)-4-oxo-1,4-dihydroquinoline-3-carboxamide]
effect on gliadin induced expression of IL-21 (BALB/c mice): inhibited
effect on gliadin-induced NLRP3 expression (BALB/c mice small intestine): counteracted
effect on gliadin-induced caspase 1 cleavage (BALB/c mice small intestine): counteracted
effect on increased NKG2D expression by intraepithelial lymphocytes (BALB/c mice small intestine): counteracted
Th1 transcription factor Tbet transcript [1]: downregulated
Th17 transcription factor Rorc transcript [1]: downregulated
effect on gliadin-induced decrease of CFTR function in small intestines (BALB/c mice, 2 mM VX-770 i.p. 15 min prior to gliadin): inhibitable
effect on gliadin-induced ERK 1/2 phosphorylation (BALB/c mice, VX-770 i.p.): opposed
effect on gliadin-induced increase of TG2 protein levels (BALB/c mice, VX-770 i.p.): opposed
effect on gliadin-induced increase of IFN-γ mRNA and protein (BALB/c mice, p<0.001): prevented
effect on gliadin-induced increase of IL-15 mRNA and protein (BALB/c mice, p<0.001): prevented
effect on gliadin-induced increase of IL-17A mRNA and protein (BALB/c mice, p<0.001): prevented
IL-10 production (gliadin-sensitive mice, ELISA): restored
TGF-β production (gliadin-sensitive mice, ELISA): restored

Source: patent US20200206198A1, “CFTR CHANNEL ACTIVATOR FOR USE IN THE TREATMENT AND/OR PREVENTION OF GLUTEN SENSITIVITY CONDITIONS” (priority 2017, published 2020)
